Experimental data published in ChEMBL document CHEMBL3639075, “Aryl-benzocycloalkyl amide derivatives” (2013).

How the values were obtained:
B1 bradykinin receptor [1] = biological target: T1, B1 bradykinin receptor (Homo sapiens, UniProt P46663); assay: Binding Assay: Binding assay using Bradykinin-1 receptor.
T1 sequence (P46663 whole entry): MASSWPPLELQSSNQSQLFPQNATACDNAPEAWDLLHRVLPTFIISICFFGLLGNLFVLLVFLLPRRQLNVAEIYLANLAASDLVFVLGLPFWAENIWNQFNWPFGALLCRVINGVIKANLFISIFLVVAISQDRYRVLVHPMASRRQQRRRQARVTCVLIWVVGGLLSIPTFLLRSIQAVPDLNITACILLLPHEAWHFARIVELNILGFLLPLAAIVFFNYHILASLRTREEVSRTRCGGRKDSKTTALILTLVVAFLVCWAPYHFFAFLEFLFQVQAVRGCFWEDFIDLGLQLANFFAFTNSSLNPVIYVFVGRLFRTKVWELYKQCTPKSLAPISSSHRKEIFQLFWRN

B1 bradykinin receptor [2] = biological target: T1, B1 bradykinin receptor; assay: Calcium Mobilization Assay: Calcium mobilization assay using Bradykinin-1 receptor.; format: functional

Ki (B1 bradykinin receptor [1]): 9.5 nM
IC50 (B1 bradykinin receptor [2]): 3.4 nM
SMILES: Cc1nc(-c2c(F)cc(Cl)cc2-c2ccc3c(c2)CC[C@@H]3NC(=O)C2(NC(=O)c3nnc(C)o3)CC2)no1
